Literature values in patent publication US8580852B2, “2-oxamide inhibitors of phospholipase A2 activity and cellular arachidonate release based on dipeptides and pseudopeptides” (The Regents of the University of California, priority 2009, dated 2013).
Marks after values point to notes of the source that are not given here.

What was measured:
GVIA iPLA2 = biological target: T1, GVIA iPLA2 (Homo sapiens, UniProt O60733); conditions: reference inhibitors; data taken from ref 15; cited from earlier work
T1 sequence (O60733 1-806): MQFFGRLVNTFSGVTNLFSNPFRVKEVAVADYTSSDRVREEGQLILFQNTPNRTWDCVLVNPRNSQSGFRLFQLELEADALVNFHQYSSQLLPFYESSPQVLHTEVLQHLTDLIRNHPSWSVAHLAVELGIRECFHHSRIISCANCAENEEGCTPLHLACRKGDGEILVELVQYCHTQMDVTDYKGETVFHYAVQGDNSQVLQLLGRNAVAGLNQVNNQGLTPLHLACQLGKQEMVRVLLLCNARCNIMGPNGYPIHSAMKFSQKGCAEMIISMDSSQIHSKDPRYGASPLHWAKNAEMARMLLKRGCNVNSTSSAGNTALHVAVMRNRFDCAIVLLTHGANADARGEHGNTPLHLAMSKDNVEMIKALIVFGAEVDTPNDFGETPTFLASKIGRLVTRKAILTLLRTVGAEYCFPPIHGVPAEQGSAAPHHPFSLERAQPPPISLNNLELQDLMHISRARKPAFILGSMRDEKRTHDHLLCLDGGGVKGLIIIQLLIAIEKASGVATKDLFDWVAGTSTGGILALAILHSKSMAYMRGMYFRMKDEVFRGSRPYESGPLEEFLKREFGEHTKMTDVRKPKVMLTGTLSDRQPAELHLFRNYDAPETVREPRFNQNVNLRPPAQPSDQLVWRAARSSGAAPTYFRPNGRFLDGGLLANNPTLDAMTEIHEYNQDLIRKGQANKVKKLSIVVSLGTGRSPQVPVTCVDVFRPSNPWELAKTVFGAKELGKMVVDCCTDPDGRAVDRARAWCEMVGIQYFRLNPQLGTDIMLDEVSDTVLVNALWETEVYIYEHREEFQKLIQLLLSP

GIVA cPLA2 = biological target: T2, GIVA cPLA2 (Homo sapiens, UniProt P47712); conditions: cited from earlier work; for Inhibition of GIVA cPLA2 (in words): in vitro, inhibitors previously reported, also inhibit GVIA iPLA2 and GV sPLA2
T2 sequence (P47712 1-749): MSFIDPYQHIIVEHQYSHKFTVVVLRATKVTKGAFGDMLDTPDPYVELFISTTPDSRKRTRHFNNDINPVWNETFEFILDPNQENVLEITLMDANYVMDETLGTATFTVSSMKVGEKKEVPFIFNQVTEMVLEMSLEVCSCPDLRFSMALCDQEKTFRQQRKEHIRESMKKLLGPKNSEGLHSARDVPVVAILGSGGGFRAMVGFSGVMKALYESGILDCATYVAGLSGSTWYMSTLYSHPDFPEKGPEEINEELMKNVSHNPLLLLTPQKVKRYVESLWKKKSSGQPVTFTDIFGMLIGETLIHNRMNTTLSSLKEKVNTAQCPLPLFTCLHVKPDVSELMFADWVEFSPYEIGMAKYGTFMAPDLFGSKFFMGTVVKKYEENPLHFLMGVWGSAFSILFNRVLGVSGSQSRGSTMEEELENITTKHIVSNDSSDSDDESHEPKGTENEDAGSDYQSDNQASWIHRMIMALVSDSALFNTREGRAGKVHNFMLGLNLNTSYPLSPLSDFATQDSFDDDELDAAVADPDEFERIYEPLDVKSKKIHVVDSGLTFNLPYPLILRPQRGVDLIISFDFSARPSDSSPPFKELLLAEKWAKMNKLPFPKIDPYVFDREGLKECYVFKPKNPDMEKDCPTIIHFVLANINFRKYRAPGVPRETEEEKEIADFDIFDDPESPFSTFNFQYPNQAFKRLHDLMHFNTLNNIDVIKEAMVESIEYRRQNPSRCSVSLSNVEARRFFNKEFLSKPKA

| Compound | GVIA iPLA2 X1(50) (GVIA iPLA2) | GIVA cPLA2 X1(50) (GIVA cPLA2; reference inhibitors, data taken from ref 15) | Inhibition of GIVA cPLA2 (in words) (GIVA cPLA2) |
| --- | --- | --- | --- |
| CCCCCCCCCCCCCCC(=O)C(=O)NCCCC(=O)OCC [AX048, reference compound] | 0.027 ± 0.009^b mole fraction | 0.022 ± 0.009^b mole fraction |  |
| CCC[C@@H](CCC(=O)OC)NC(=O)C(=O)CC [Compound 27] |  |  | inhibit GIVA cPLA2 to a high extent, though not selectively |
| CCC[C@@H](/C=C/C(=O)OC)NC(=O)C(=O)CC [Compound 29] |  |  | inhibit GIVA cPLA2 to a high extent, though not selectively |
| CCC(=O)C(=O)N[C@@H](C)CCC(=O)OC(C)(C)C [Compound 31] |  |  | inhibit GIVA cPLA2 to a high extent, though not selectively |
